{"source": "paper PMC6732734", "about": "(Heliyon, 2019)", "assay": "In vivo gentamicin release / pharmacokinetics after tail vein injection", "design": "species or system Wistar rats", "details": "rat", "data": [{"smiles": "CNC(C)C1CCC(N)C(OC2C(N)CC(N)C(OC3OCC(C)(O)C(NC)C3O)C2O)O1", "note": "(stereo not drawn) [Pure drug, Gentamicin]", "values": [{"measurement": "AUC(0-inf)", "setting": "male, Wistar, plasma, iv, 2 mg", "value": 203, "unit": "µg·h/mL"}, {"measurement": "Cmax", "setting": "male, Wistar, plasma, iv, 2 mg", "value": 8400, "unit": "ng/mL"}, {"measurement": "Tmax", "setting": "male, Wistar, plasma, iv, 2 mg", "value": 1, "unit": "h"}, {"measurement": "Vd", "setting": "male, Wistar, plasma, iv, 2 mg", "value": 0.1, "unit": "L/kg"}, {"measurement": "clearance", "setting": "male, Wistar, plasma, iv, 2 mg", "value": 5, "unit": "mL/h/kg"}, {"measurement": "time up to which gentamicin was detectable in the plasma", "setting": "intravenous", "value": "up to 6 h"}]}]}
